Results published in PubChem BioAssay (NCI).
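GI50 = concentration required for 50% inhibition of growth. TGI: concentration producing complete growth inhibition.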

Key:
Assay in all cases: NCI-60 cell line screen, 384-well format
[1] = tested on: 786-0 renal
[2] = tested on: A498 renal
[3] = tested on: A549 NSCLC
[4] = tested on: ACHN renal
[5] = tested on: BT-549 breast
[6] = tested on: CAKI-1 renal
[7] = tested on: CCRF-CEM leukemia
[8] = tested on: DU-145 prostate
[9] = tested on: HCT-116 colon
[10] = tested on: HCT-15 colon
[11] = tested on: HL-60(TB) leukemia
[12] = tested on: HOP-62 NSCLC
[13] = tested on: HOP-92 NSCLC
[14] = tested on: HS 578T breast
[15] = tested on: HT29 colon
[16] = tested on: IGROV1 ovarian
[17] = tested on: K-562 leukemia
[18] = tested on: KM12 colon
[19] = tested on: LOX IMVI melanoma
[20] = tested on: M14 melanoma
[21] = tested on: MALME-3M melanoma
[22] = tested on: MCF7 breast
[23] = tested on: MDA-MB-231 breast
[24] = tested on: MDA-MB-435 melanoma
[25] = tested on: MDA-MB-468 breast
[26] = tested on: MOLT-4 leukemia
[27] = tested on: NCI-H226 lung
[28] = tested on: NCI-H23 lung
[29] = tested on: NCI-H522 lung
[30] = tested on: NCI/ADR-RES ovarian
[31] = tested on: OVCAR-3 ovarian
[32] = tested on: OVCAR-4 ovarian
[33] = tested on: OVCAR-8 ovarian
[34] = tested on: PC-3 prostate
[35] = tested on: RPMI-8226 leukemia
[36] = tested on: RXF 393 renal
[37] = tested on: SF-268 CNS
[38] = tested on: SF-295 CNS
[39] = tested on: SF-539 CNS
[40] = tested on: SK-MEL-2 melanoma
[41] = tested on: SK-MEL-28 melanoma
[42] = tested on: SK-OV-3 ovarian
[43] = tested on: SN12C renal
[44] = tested on: SNB-19 CNS
[45] = tested on: SNB-75 CNS
[46] = tested on: SW-620 colon
[47] = tested on: T-47D breast
[48] = tested on: TK-10 renal
[49] = tested on: U251 glioblastoma
[50] = tested on: UACC-257 melanoma
[51] = tested on: UACC-62 melanoma
[52] = tested on: UO-31 renal
[53] = tested on: EKVX NSCLC
[54] = tested on: NCI-H322M lung
[55] = tested on: OVCAR-5 ovarian

O=NN(CCCl)C(=O)NC1CCCCC1
GI50 [1]: 20.2 µM | TGI [1]: 66.4 µM | GI50 [2]: 73.1 µM | GI50 [3]: 51.8 µM | GI50 [4]: 24.9 µM | TGI [4]: 71.4 µM | GI50 [5]: 21.4 µM | TGI [5]: 59.6 µM | GI50 [6]: 22.9 µM | TGI [6]: 75.4 µM | GI50 [7]: 19.5 µM | TGI [7]: 33.8 µM | GI50 [8]: 51.9 µM | GI50 [9]: 32.3 µM | GI50 [10]: 19.1 µM | TGI [10]: 41.3 µM | GI50 [11]: 12.2 µM | TGI [11]: 24.8 µM | GI50 [12]: 18.9 µM | TGI [12]: 56.5 µM | GI50 [13]: 28.9 µM | GI50 [14]: 13.1 µM | TGI [14]: 42.5 µM | GI50 [15]: 27.1 µM | TGI [15]: 78 µM | GI50 [16]: 78 µM | GI50 [17]: 20.1 µM | TGI [17]: 42.5 µM | GI50 [18]: 22.2 µM | TGI [18]: 86.8 µM | GI50 [19]: 13.2 µM | TGI [19]: 38 µM | GI50 [20]: 21.9 µM | TGI [20]: 65.2 µM | GI50 [21]: 18.6 µM | TGI [21]: 43.5 µM | GI50 [22]: 41.1 µM | GI50 [23]: 76.1 µM | GI50 [24]: 26 µM | TGI [24]: 81.2 µM | GI50 [25]: 13.2 µM | TGI [25]: 28.4 µM | GI50 [26]: 12.4 µM | TGI [26]: 25 µM | GI50 [27]: 29.9 µM | GI50 [28]: 30.3 µM | GI50 [29]: 15.4 µM | TGI [29]: 29 µM | GI50 [30]: 22.7 µM | TGI [30]: 54.4 µM | GI50 [31]: 27.4 µM | TGI [31]: 98 µM | GI50 [32]: 20.6 µM | TGI [32]: 50.3 µM | GI50 [33]: 21.4 µM | TGI [33]: 49.6 µM | GI50 [34]: 29 µM | GI50 [35]: 13.7 µM | TGI [35]: 26.9 µM | GI50 [36]: 17.3 µM | TGI [36]: 36 µM | GI50 [37]: 29.3 µM | GI50 [38]: 27.2 µM | GI50 [39]: 16.4 µM | TGI [39]: 35.3 µM | GI50 [40]: 32.5 µM | TGI [40]: 78.9 µM | GI50 [41]: 42.5 µM | GI50 [42]: 55.1 µM | GI50 [43]: 21.3 µM | TGI [43]: 61.2 µM | GI50 [44]: 34.9 µM | GI50 [45]: 34.6 µM | GI50 [46]: 20.9 µM | TGI [46]: 69.1 µM | GI50 [47]: 34.6 µM | GI50 [48]: 32.8 µM | GI50 [49]: 18.9 µM | GI50 [50]: 52.1 µM | GI50 [51]: 12.5 µM | TGI [51]: 41.6 µM | GI50 [52]: 24.3 µM | TGI [52]: 63.1 µM

Nc1nc(=S)c2[nH]cnc2[nH]1
GI50 [1]: 0.469 µM | TGI [1]: 12 µM | GI50 [2]: 4.85 µM | TGI [2]: 28.7 µM | GI50 [3]: 2.1 µM | TGI [3]: 7.53 µM | GI50 [4]: 1.52 µM | TGI [4]: 5.28 µM | GI50 [5]: 0.449 µM | TGI [5]: 2.31 µM | GI50 [6]: 0.371 µM | TGI [6]: 2.62 µM | GI50 [7]: 0.212 µM | TGI [7]: 0.383 µM | GI50 [8]: 0.311 µM | TGI [8]: 1.18 µM | GI50 [53]: 0.544 µM | TGI [53]: 12.2 µM | GI50 [9]: 0.341 µM | TGI [9]: 7.39 µM | GI50 [10]: 0.988 µM | TGI [10]: 7.18 µM | GI50 [11]: 0.376 µM | TGI [11]: 1.1 µM | GI50 [12]: 0.304 µM | TGI [12]: 0.784 µM | GI50 [13]: 0.393 µM | TGI [13]: 25.2 µM | GI50 [14]: 1.25 µM | TGI [14]: 4.46 µM | GI50 [15]: 0.906 µM | TGI [15]: 5.3 µM | GI50 [16]: 3.51 µM | TGI [16]: 27.7 µM | GI50 [17]: 0.366 µM | TGI [17]: 1.21 µM | GI50 [18]: 0.917 µM | TGI [18]: 4.9 µM | GI50 [19]: 0.206 µM | TGI [19]: 0.426 µM | GI50 [20]: 0.379 µM | TGI [20]: 4.41 µM | GI50 [21]: 0.718 µM | TGI [21]: 3.47 µM | GI50 [22]: 0.297 µM | TGI [22]: 1.33 µM | GI50 [23]: 0.283 µM | TGI [23]: 0.918 µM | GI50 [24]: 1.09 µM | TGI [24]: 4.73 µM | GI50 [25]: 0.238 µM | TGI [25]: 0.565 µM | GI50 [26]: 0.112 µM | TGI [26]: 0.248 µM | GI50 [27]: 0.36 µM | TGI [27]: 3.92 µM | GI50 [28]: 0.377 µM | TGI [28]: 1.69 µM | GI50 [54]: 2.21 µM | TGI [54]: 21.2 µM | GI50 [29]: 1.03 µM | TGI [29]: 2.84 µM | GI50 [30]: 0.375 µM | TGI [30]: 1.52 µM | GI50 [31]: 0.306 µM | TGI [31]: 1.03 µM | GI50 [32]: 1.05 µM | TGI [32]: 7.19 µM | GI50 [55]: 0.199 µM | TGI [55]: 0.465 µM | GI50 [33]: 0.362 µM | TGI [33]: 1.56 µM | GI50 [34]: 1.34 µM | TGI [34]: 14.5 µM | GI50 [35]: 0.139 µM | TGI [35]: 0.296 µM | GI50 [36]: 0.728 µM | TGI [36]: 3.51 µM | GI50 [37]: 0.428 µM | TGI [37]: 2.4 µM | GI50 [38]: 0.248 µM | TGI [38]: 0.735 µM | GI50 [39]: 0.686 µM | TGI [39]: 7.92 µM | GI50 [40]: 3.32 µM | TGI [40]: 7.34 µM | GI50 [41]: 4.57 µM | TGI [41]: 26.7 µM | GI50 [42]: 0.541 µM | TGI [42]: 9.85 µM | GI50 [43]: 1.44 µM | TGI [43]: 8.29 µM | GI50 [44]: 28 µM | GI50 [45]: 0.353 µM | TGI [45]: 13.2 µM | GI50 [46]: 3.02 µM | TGI [46]: 23.3 µM | GI50 [47]: 0.715 µM | TGI [47]: 15.5 µM | GI50 [48]: 0.251 µM | TGI [48]: 0.625 µM | GI50 [49]: 3.4 µM | TGI [49]: 83.3 µM | GI50 [50]: 1.13 µM | TGI [50]: 8.82 µM | GI50 [51]: 0.366 µM | TGI [51]: 1.69 µM | GI50 [52]: 1.5 µM | TGI [52]: 11.8 µM
